According to PMC12234328, “A naphthalimide derivative exerts potent antiplatelet and antithrombotic activities without a bleeding tendency” (Frontiers in Pharmacology, 2025):

Tests used:
[1] = test system: human platelet suspensions stimulated with thrombin; test: Thrombin-induced platelet aggregation; assay type: cell-based; details: 5–50 μM, 0.02 U/mL thrombin
From the text: (§1) This study received approval from the Taipei Medical University–Joint Institutional Review Board (TMU-JIRB-No. N202003148) and adhered to the principles of the Declaration of Helsinki. Informed consent was obtained from all volunteers before their participation. Human platelets were washed and prepared according to previously established methods ([Lu et al., 2019]). Whole blood was collected from healthy participants who had not taken any medications, including nonsteroidal anti-inflammatory drugs or aspirin, in the preceding 2 weeks. The blood was drawn into polypropylene tubes containing an acid citrate–dextrose solution (9:1, v/v). After mixing, the samples were centrifuged at 120 g for 10 min. The upper layer of platelet-rich plasma was collected and supplemented with prostaglandin E1 and heparin. Following further centrifugation at 500 g for 10 min, the platelet pellets were washed twice. The platelets were then resuspended in Tyrode’s solution containing 3.5 mg/mL bovine serum albumin (B.S.A.) to create platelet suspensions. The final Ca^2+ concentration of the platelet suspensions (3.6 × 10^8 cells/mL) was 1 mM.
(§2) Platelet aggregation was measured using a lumi-aggregometer (Payton, Scarborough, Canada) through the turbidimetric method ([Lu et al., 2019]). […] Subsequently, various agonists were added and platelet aggregation was then recorded for an additional 6 min. […]

[2] = test system: human platelet suspensions stimulated with U46619; test: U46619-induced platelet aggregation; assay type: cell-based; details: 5–50 μM, 1 μM U46619
From the text: as §1, §2

[3] = test system: GPVI signaling (Lyn, Fyn, PLCγ2, PKC substrate p47, Akt, MAPKs); test: Western blotting of GPVI signaling in collagen-stimulated platelets; assay type: cell-based, human; details: collagen 1 μg/mL
Method: Western blotting was performed as described previously ([Lien et al., 2017]). Human platelet suspensions (3.6 × 10^8 cells/mL) were pretreated with compound 6 (2.5 and 5 μM) or 0.1% DMSO for 3 min and then treated with collagen for 6 min. After centrifugation, the platelet pellets were immediately resuspended in lysis buffer (200 μL) for 1 h. The supernatants were collected after centrifugation at 5,000 g for 5 min, and the protein extracts (80 μg) were subjected to 8%–12% sodium dodecylsulfate–polyacrylamide gel electrophoresis. The separated proteins were then electrotransferred onto a polyvinylidene fluoride membrane through a semidry transfer (Thermo Fisher, Waltham, MA, United States). The membrane was blocked with TBST (10 mM Tris-base, 100 mM NaCl, and 0.01% Tween-20) containing 5% B.S.A. for 1 h. After being washed three times, the membrane was incubated with various specific primary antibodies (1:1,000). Subsequently, the membrane was incubated with HRP-conjugated antibodies (1:5,000) for 1 h. Immunoreactive bands were developed using an electrochemiluminescence kit and analyzed using Celvin S (Biostep, Burkhardtsdorf, Germany).
FIGURE 5 Effects of compound 6 on the phosphorylation of Fyn, Lyn, PLCγ2, and PKC substrates (p47) induced by collagen in human platelets. (A–D) Washed platelets (3.6 × 10^8 cells/mL) were treated with compound 6 (2.5 and 5 μM) or DMSO before adding collagen (1 μg/mL). Proteins of these samples were separated by Western blotting. These targets (Fyn, Lyn, PLCγ2, and p47) were detected using specific antibodies. Data (A–D) are presented as means ± SEM (n = 5). **p < 0.01 and ***p < 0.001 compared with the resting group. #p < 0.05, ##p < 0.01, and ###p < 0.001 compared with the DMSO (solvent control) group.
FIGURE 6 Effects of compound 6 on the phosphorylation of Akt, and MAPKs induced by collagen in human platelets. Washed platelets (3.6 × 10^8 cells/mL) were treated with compound 6 (2.5 and 5 μM) or DMSO before adding collagen (1 μg/mL). […] Akt (A), p38 MAPK (B), ERK (C), and JNK (D) were detected using specific antibodies. […]

[4] = test system: collagen-triggered calcium mobilization in human platelets; test: Calcium mobilization in human platelet suspensions (Fura-2 AM); assay type: cell-based; details: 2.5 and 5 μM, collagen 1 μg/mL, n = 4
Method: Adenosine triphosphate (ATP) release and calcium mobilization were assessed as previously described ([Shih et al., 2021]). Luciferase–luciferin and Fura-2 AM were used to detect ATP release and calcium mobilization, respectively. The intensity of luminescence (indicating ATP release) and the fluorescence ratio (340 nm/380 nm) for calcium mobilization were measured using a Hitachi Spectrometer F-7000 (Tokyo, Japan) following the manufacturer’s instructions.
(§3) FIGURE 8 Effects of compound 6 on ATP release, calcium mobilization, and GPIIb–IIIa activation triggered by collagen in human platelets. Washed platelets (3.6 × 10^8 cells/mL) were treated with compound 6 (C6, 2.5 and 5 μM) or DMSO and then stimulated with collagen (1 μg/mL) to trigger ATP release (A), calcium mobilization (B), and GPIIb–IIIa activation (C) that were detected using luciferase/luciferin, Fura-2 AM, and APC–PAC1 antibodies, respectively. Data (A–C) are presented as means ± SEM (n = 4). **p < 0.01 and ***p < 0.001 compared with the resting group. #p < 0.05, ##p < 0.01, and ###p < 0.001 compared with the DMSO (solvent control) group.

[5] = test system: GPIIb–IIIa activation in human platelets; test: GPIIb-IIIa activation by flow cytometry (APC-PAC-1); assay type: cell-based; details: 2.5 and 5 μM, collagen 1 μg/mL, n = 4
Method: Flow cytometry was performed as previously described ([Lien et al., 2017]). After 20 min of collagen stimulation, the human platelets were fixed and labeled with APC-conjugated PAC-1 antibodies for 30 min to detect the level of GPIIb–IIIa activation. After centrifugation and washing, the platelets were suspended in 1 mL of phosphate-buffered saline and analyzed using a CytoFLEX flow cytometer (Beckman Coulter Life Sciences, Indianapolis, IN, United States). In the flow cytometry setup, platelets were gated using forward scatter and side scatter, and the number of events was set to stop at 10,000 counts. All experiments were performed at least three times to ensure reliable results.
as §3

SMILES: CCCCN1C(=O)c2cccc3c(NCCNC(=O)C45CC6CC(CC(C6)C4)C5)ccc(c23)C1=O [compound 6]
- Effect on thrombin-induced platelet aggregation [1]: did not significantly affect
- Effect on U46619-induced platelet aggregation [2]: did not significantly affect
- Collagen-induced phosphorylation of Akt and MAPKs (ERK, p38 MAPK, JNK) ([3]; 5 μM, n = 4): could be diminished
- Collagen-induced Lyn and Fyn phosphorylation ([3]; 2.5 and 5 μM, n = 5): could be reversed
- Collagen-induced phosphorylation of PLCγ2 and the substrate of PKC (p47 proteins) ([3]; 2.5 and 5 μM, n = 5): significantly reduced
- Calcium mobilization [4]: significantly reduce
- GPIIb–IIIa activation [5]: significantly reduce
